In patent US20050009924A1 (priority 2003, published 2005):

Columns and labels:
human hepatoma G2 cells = experiment: Cytotoxicity assay (XTT colorimetric), Hep G2; assay type: cell-based; conditions: 48 h of drug exposure
[1] = tested on: hepatitis B virus transfected hepatoma cell lines, HepG 2.2.15 cells; experiment: Cytotoxicity assay, 2.2.15 cells; assay type: cell-based, human; conditions: 48 h of drug exposure
[2] = tested on: non-small-cell lung cancer cells H1299; experiment: MTT relative viability, PhTERT-SEAP (H1299) cells; conditions: PhTERT-SEAP(hTERT-H1299)
Experimental: The tetrazolium reagent (MTT; 3-(4,5-di-methylthiazol)-2,5-diphenyl tetrazolium bromide, USB) was designed to yield a colored formazan upon metabolic reduction by viable cells. Approximately […] cells were plated onto each well of a 96-well plate and incubated in 5% CO2 at 37° C. for 24 h. To assess the in vitro cytotoxicity, each compound was dissolved in DMSO and prepared immediately before the experiments and was diluted into the complete medium before addition to cell cultures. Test compounds were then added to the culture medium for designated various concentrations. After 48 h, an amount of 25 μL of MTT was added to each well, and the samples were incubated at 37° C. for 4 h. A 100 μL solution of lysis buffer containing 20% SDS and 50% N,N-dimethylformamide was added to each well and incubated at 37° C. for another 16 h. The absorbency at 550 nm was measured using an ELISA reader.
Non small lung cancer cells H1299 (telomerase positive) were grown in RPMI 1640 media supplemented with 10% fetal bovine serum, 100 units/mL penicillin and 100 mg/mL streptomycin in a humidified atmosphere with 5% CO2 at 37° C. The hTERT immortalized hTERT-BJ1 (BD Biosciences Clontech)^39 were grown in DMEM media supplemented with 10% fetal calf serum, 100 units/mL penicillin and 100 mg/mL streptomycin, 1 mM sodium pyruvate, and 4 mM I-arginine in a humidified atmosphere with 5% CO2 at 37° C. Culture media were changed every 3 days. […] The stable clones derived from H1299 or hTERT-BJ1 were cultured using conditions that are similar to their parental cells.

[3] = tested on: transcriptional activity of hTERT; experiment: SEAP reporter assay of hTERT expression, PhTERT-SEAP (hTERT-BJ1); assay type: cell-based, human; conditions: PhTERT-SEAP (hTERT-BJ1)
Experimental: (§1) Secreted alkaine phosphatase was used as the reporter system to monitor the transcriptional activity of hTERT. Here, about […] each were grown in 96-well plates and incubated at 37° C. for 24 h and changed with fresh media. Varying amounts of drugs were added and cells were incubated for another 24 h. Culture media were collected and heated at 65° C. for 10 min to inactivate heat-labile phosphatases. An equal amount of SEAP buffer (2 M diethanolamine, 1 mM MgCl2, and 20 mM […]) was added to the media and p-nitrophenyl phosphate was added to a final concentration of 12 mM. Absorptions at 405 nm were taken, and the rate of absorption increase is determined.
(§2) Culture media were changed every 3 days. […] The stable clones were selected using G418.

[4] = tested on: transcriptional activity of hTERT; experiment: SEAP reporter assay of hTERT expression, PhTERT-SEAP (H1299); assay type: cell-based, human; conditions: PhTERT-SEAP(hTERT-H1299)
Experimental: as §1, §2

rat glioma C6 cells = experiment: Cytotoxicity assay (XTT colorimetric), C6 cells; assay type: cell-based; conditions: 48 h of drug exposure
hTERT-BJ1 cells = experiment: MTT relative viability, PhTERT-SEAP (hTERT-BJ1) cells; conditions: PhTERT-SEAP (hTERT-BJ1)

Structure (SMILES): O=C(Nc1ccc(NC(=O)c2ccc(Cl)cc2Cl)c2c1C(=O)c1ccccc1C2=O)c1ccc(Cl)cc1Cl [VI8, 1,4-Bis(2,4-dichlorobenzoylamido)-9,10-anthracenedione]
- IC50 (human hepatoma G2 cells): > 20 µM
- IC50 [1]: > 20 µM
- Relative MTT viability (%) ([2]; 1.7 μM): 106 ± 3.9%
- Relative MTT viability (%) ([2]; 17 μM): 95 ± 1.3%
- Relative MTT viability (%) ([2]; 171 μM): 83 ± 1.2%
- Relative SEAP activity (%) ([3]; 1.7 μM): 33 ± 11.2%
- SEAP/vibility ([3]; 1.7 μM): 0.32
- Relative SEAP activity (%) ([3]; 17 μM): 25 ± 17.2%
- SEAP/vibility ([3]; 17 μM): 0.26
- Relative SEAP activity (%) ([3]; 171 μM): 39 ± 12.8%
- SEAP/vibility ([3]; 171 μM): 0.52
- Relative SEAP activity (%) ([4]; 1.7 μM): 85 ± 7.9%
- SEAP/vibility ([4]; 1.7 μM): 0.80
- Relative SEAP activity (%) ([4]; 17 μM): 84 ± 7.1%
- SEAP/vibility ([4]; 17 μM): 0.89
- Relative SEAP activity (%) ([4]; 171 μM): 87 ± 2.6%
- SEAP/vibility ([4]; 171 μM): 1.06
- IC50 (rat glioma C6 cells): > 20 µM
- Relative MTT viability (%) (hTERT-BJ1 cells; 1.7 μM): 102 ± 3.4%
- Relative MTT viability (%) (hTERT-BJ1 cells; 17 μM): 98 ± 7.2%
- Relative MTT viability (%) (hTERT-BJ1 cells; 171 μM): 76 ± 4.8%

Structure (SMILES): O=C(Nc1ccc(NC(=O)c2ccccc2F)c2c1C(=O)c1ccccc1C2=O)c1ccccc1F [VI10, 1,4-Bis(2-fluorobenzoylamido)-9,10-anthracenedione]
- IC50 (human hepatoma G2 cells): > 20 µM
- IC50 [1]: > 20 µM
- Relative MTT viability (%) ([2]; 2.0 μM): 116 ± 2.4%
- Relative MTT viability (%) ([2]; 20 μM): 104 ± 6.1%
- Relative MTT viability (%) ([2]; 207 μM): 77 ± 2.6%
- Relative SEAP activity (%) ([3]; 2.0 μM): 95 ± 8.9%
- SEAP/vibility ([3]; 2.0 μM): 0.90
- Relative SEAP activity (%) ([3]; 20 μM): 96 ± 9.8%
- SEAP/vibility ([3]; 20 μM): 0.96
- Relative SEAP activity (%) ([3]; 207 μM): 79 ± 7.4%
- SEAP/vibility ([3]; 207 μM): 0.92
- Relative SEAP activity (%) ([4]; 2.0 μM): 105 ± 7.8%
- SEAP/vibility ([4]; 2.0 μM): 0.91
- Relative SEAP activity (%) ([4]; 20 μM): 107 ± 11.9%
- SEAP/vibility ([4]; 20 μM): 1.03
- Relative SEAP activity (%) ([4]; 207 μM): 103 ± 14.4%
- SEAP/vibility ([4]; 207 μM): 1.34
- IC50 (rat glioma C6 cells): > 20 µM
- Relative MTT viability (%) (hTERT-BJ1 cells; 2.0 μM): 106 ± 6.5%
- Relative MTT viability (%) (hTERT-BJ1 cells; 20 μM): 105 ± 8.5%
- Relative MTT viability (%) (hTERT-BJ1 cells; 207 μM): 86 ± 7.3%

Structure (SMILES): O=C(Nc1ccc(NC(=O)c2ccccc2[N+](=O)[O-])c2c1C(=O)c1ccccc1C2=O)c1ccccc1[N+](=O)[O-] [VI11, 1,4-Bis(2-nitrobenzoylamido)-9,10-anthracenedione]
- IC50 (human hepatoma G2 cells): > 20 µM
- IC50 [1]: > 20 µM
- Relative MTT viability (%) ([2]; 1.8 μM): 104 ± 6.3%
- Relative MTT viability (%) ([2]; 18 μM): 101 ± 4.1%
- Relative MTT viability (%) ([2]; 186 μM): 86 ± 5.3%
- Relative SEAP activity (%) ([3]; 1.8 μM): 102 ± 33.4%
- SEAP/vibility ([3]; 1.8 μM): 0.92
- Relative SEAP activity (%) ([3]; 18 μM): 122 ± 19.5%
- SEAP/vibility ([3]; 18 μM): 1.14
- Relative SEAP activity (%) ([3]; 186 μM): 114 ± 28.1%
- SEAP/vibility ([3]; 186 μM): 1.15
- Relative SEAP activity (%) ([4]; 1.8 μM): 105 ± 4.3%
- SEAP/vibility ([4]; 1.8 μM): 1.00
- Relative SEAP activity (%) ([4]; 18 μM): 107 ± 7.9%
- SEAP/vibility ([4]; 18 μM): 1.06
- Relative SEAP activity (%) ([4]; 186 μM): 94 ± 8.0%
- SEAP/vibility ([4]; 186 μM): 1.10
- IC50 (rat glioma C6 cells): > 20 µM
- Relative MTT viability (%) (hTERT-BJ1 cells; 1.8 μM): 110 ± 4.1%
- Relative MTT viability (%) (hTERT-BJ1 cells; 18 μM): 107 ± 6.3%
- Relative MTT viability (%) (hTERT-BJ1 cells; 186 μM): 99 ± 3.2%

Structure (SMILES): O=C(Nc1ccc(NC(=O)c2cccc(F)c2)c2c1C(=O)c1ccccc1C2=O)c1cccc(F)c1 [VI12, 1,4-Bis(3-fluorobenzoylamido)-9,10-anthracenedione]
- IC50 (human hepatoma G2 cells): > 20 µM
- IC50 [1]: > 20 µM
- Relative MTT viability (%) ([2]; 2.0 μM): 105 ± 6.8%
- Relative MTT viability (%) ([2]; 20 μM): 96 ± 7.4%
- Relative MTT viability (%) ([2]; 207 μM): 66 ± 5.5%
- Relative SEAP activity (%) ([3]; 2.0 μM): 107 ± 11.9%
- SEAP/vibility ([3]; 2.0 μM): 1.05
- Relative SEAP activity (%) ([3]; 20 μM): 108 ± 15.5%
- SEAP/vibility ([3]; 20 μM): 1.11
- Relative SEAP activity (%) ([3]; 207 μM): 95 ± 13.9%
- SEAP/vibility ([3]; 207 μM): 1.12
- Relative SEAP activity (%) ([4]; 2.0 μM): 102 ± 2.9%
- SEAP/vibility ([4]; 2.0 μM): 0.98
- Relative SEAP activity (%) ([4]; 20 μM): 110 ± 6.5%
- SEAP/vibility ([4]; 20 μM): 1.14
- Relative SEAP activity (%) ([4]; 207 μM): 106 ± 9.4%
- SEAP/vibility ([4]; 207 μM): 1.59
- IC50 (rat glioma C6 cells): > 20 µM
- Relative MTT viability (%) (hTERT-BJ1 cells; 2.0 μM): 102 ± 1.5%
- Relative MTT viability (%) (hTERT-BJ1 cells; 20 μM): 97 ± 2.9%
- Relative MTT viability (%) (hTERT-BJ1 cells; 207 μM): 85 ± 2.6%

Structure (SMILES): O=C(Nc1ccc(NC(=O)c2c(Cl)cc(Cl)cc2Cl)c2c1C(=O)c1ccccc1C2=O)c1c(Cl)cc(Cl)cc1Cl [VI13, 1,4-Bis(2,4,6-trichlorobenzoylamido)-9,10-anthracenedione]
- IC50 (human hepatoma G2 cells): 2.77 µM
- IC50 [1]: 3.63 µM
- Relative MTT viability (%) ([2]; 1.5 μM): 113 ± 4.8%
- Relative MTT viability (%) ([2]; 15 μM): 107 ± 5.4%
- Relative MTT viability (%) ([2]; 153 μM): 20 ± 3.3%
- Relative SEAP activity (%) ([3]; 1.5 μM): 31 ± 23.0%
- SEAP/vibility ([3]; 1.5 μM): 0.32
- Relative SEAP activity (%) ([3]; 15 μM): 12 ± 12.5%
- SEAP/vibility ([3]; 15 μM): 0.19
- Relative SEAP activity (%) ([3]; 153 μM): 4 ± 15%
- SEAP/vibility ([3]; 153 μM): 0.09
- Relative SEAP activity (%) ([4]; 1.5 μM): 98 ± 4.5%
- SEAP/vibility ([4]; 1.5 μM): 0.87
- Relative SEAP activity (%) ([4]; 15 μM): 66 ± 2.4%
- SEAP/vibility ([4]; 15 μM): 0.61
- Relative SEAP activity (%) ([4]; 153 μM): 41 ± 3.9%
- SEAP/vibility ([4]; 153 μM): 0.03
- IC50 (rat glioma C6 cells): > 20 µM
- Relative MTT viability (%) (hTERT-BJ1 cells; 1.5 μM): 98 ± 8.5%
- Relative MTT viability (%) (hTERT-BJ1 cells; 15 μM): 63 ± 7.0%
- Relative MTT viability (%) (hTERT-BJ1 cells; 153 μM): 40 ± 22.2%

Structure (SMILES): O=C(Nc1ccc(NC(=O)c2c(F)ccc(F)c2F)c2c1C(=O)c1ccccc1C2=O)c1c(F)ccc(F)c1F [VI14, 1,4-Bis(2,3,6-trifluorobenzoylamido)-9,10-anthracenedione]
- IC50 (human hepatoma G2 cells): > 20 µM
- IC50 [1]: > 20 µM
- Relative MTT viability (%) ([2]; 1.8 μM): 111 ± 2.9%
- Relative MTT viability (%) ([2]; 18 μM): 89 ± 3.7%
- Relative MTT viability (%) ([2]; 180 μM): 55 ± 3.3%
- Relative SEAP activity (%) ([3]; 1.8 μM): 35 ± 14.1%
- SEAP/vibility ([3]; 1.8 μM): 0.35
- Relative SEAP activity (%) ([3]; 18 μM): 22 ± 24.4%
- SEAP/vibility ([3]; 18 μM): 0.25
- Relative SEAP activity (%) ([3]; 180 μM): 31 ± 7.9%
- SEAP/vibility ([3]; 180 μM): 0.44
- Relative SEAP activity (%) ([4]; 1.8 μM): 91 ± 5.2%
- SEAP/vibility ([4]; 1.8 μM): 0.82
- Relative SEAP activity (%) ([4]; 18 μM): 97 ± 4.1%
- SEAP/vibility ([4]; 18 μM): 1.09
- Relative SEAP activity (%) ([4]; 180 μM): 91 ± 3.3%
- SEAP/vibility ([4]; 180 μM): 1.64
- IC50 (rat glioma C6 cells): > 20 µM
- Relative MTT viability (%) (hTERT-BJ1 cells; 1.8 μM): 102 ± 3.3%
- Relative MTT viability (%) (hTERT-BJ1 cells; 18 μM): 90 ± 6.0%
- Relative MTT viability (%) (hTERT-BJ1 cells; 180 μM): 70 ± 6.8%

Structure (SMILES): O=C(Nc1ccc(NC(=O)c2cc(F)c(F)cc2F)c2c1C(=O)c1ccccc1C2=O)c1cc(F)c(F)cc1F [VI15, 1,4-Bis(2,4,5-trifluorobenzoylamido)-9,10-anthracenedione]
- IC50 (human hepatoma G2 cells): > 20 µM
- IC50 [1]: 3.35 µM
- Relative MTT viability (%) ([2]; 1.6 μM): 90 ± 6.6%
- Relative MTT viability (%) ([2]; 16 μM): 81 ± 1.9%
- Relative MTT viability (%) ([2]; 161 μM): 60 ± 5.0%
- Relative SEAP activity (%) ([3]; 1.6 μM): 117 ± 14.2%
- SEAP/vibility ([3]; 1.6 μM): 1.12
- Relative SEAP activity (%) ([3]; 16 μM): 114 ± 20.4%
- SEAP/vibility ([3]; 16 μM): 1.29
- Relative SEAP activity (%) ([3]; 161 μM): 115 ± 30.8%
- SEAP/vibility ([3]; 161 μM): 1.44
- Relative SEAP activity (%) ([4]; 1.6 μM): 109 ± 10.8%
- SEAP/vibility ([4]; 1.6 μM): 1.20
- Relative SEAP activity (%) ([4]; 16 μM): 118 ± 10.3%
- SEAP/vibility ([4]; 16 μM): 1.45
- Relative SEAP activity (%) ([4]; 161 μM): 104 ± 8.2%
- SEAP/vibility ([4]; 161 μM): 1.73
- IC50 (rat glioma C6 cells): > 20 µM
- Relative MTT viability (%) (hTERT-BJ1 cells; 1.6 μM): 104 ± 4.5%
- Relative MTT viability (%) (hTERT-BJ1 cells; 16 μM): 89 ± 5.0%
- Relative MTT viability (%) (hTERT-BJ1 cells; 161 μM): 80 ± 3.8%
